Results: publication PMC10016038, “Enhanced Endosomal Signaling and Desensitization of GLP-1R vs GIPR in Pancreatic Beta Cells” (Endocrinology, 2023)
Entries after “also recorded” stand apart in the source; their conditions may differ.

What was measured:
SNAP-tagged human GIPR [1] = assay: DERET internalization assay, INS-1 832/3 SNAP-GIPR cells; type: cell-based; details: non-cognate agonist GLP-1, or both agonists combined
Method: The diffusion-enhanced resonance energy transfer (DERET) assay was performed as previously described ([21]). The INS-1 832/3 SNAP-GLP-1R or SNAP-GIPR cells were labeled in suspension with Lumi4-Tb (40 nM) for 30 minutes in complete media. After washing, cells were resuspended in HBSS containing 24 µM fluorescein and dispensed into 96-well white plates. A baseline read was serially recorded over 5 minutes using a Flexstation 3 instrument at 37 °C in time-resolved fluorescence resonance energy transfer (TR-FRET) mode using the following settings: λex 340 nm, λem 520 and 620 nm, auto-cutoff, delay 400 µs, integration time 1500 µs. Ligands were then added, after which signal was repeatedly recorded for 30 minutes. Fluorescence signals were expressed ratiometrically after first subtracting signal from wells containing 24 µM fluorescein but no cells. Internalization was quantified as area under the curve (AUC) relative to individual well baseline.
Note that surface expression levels of SNAP-GLP-1R and SNAP-GIPR were similar within these 2 cell models (Supplemental Fig. 1A) ([32]).

SNAP-tagged human GIPR [2] = assay: Colocalization with Rab5-Venus, SNAP-GIPR; type: cell-based; details: 100 nM GIP
Description: To determine the intracellular destination of internalized GLP-1Rs/GIPRs more precisely, we performed concentration response bystander NanoBRET assays using C-terminal NanoLuc-fused SNAP-tagged GLP-1R vs GIPR and either KRAS-Venus (plasma membrane) or Rab5-Venus (early endosome) co-expressed transiently in INS-1 832/3 cells (Fig. 2).

SNAP-tagged human GIPR [3] = assay: High-content microscopy recycling, SNAP-GIPR; type: cell-based; details: 100 nM, 60 min recycling, 37 °C, n = 5
Method: The assay was performed as previously described ([21]). The INS-1 832/3 SNAP-GLP-1R or SNAP-GIPR cells were seeded into poly-D-lysine-coated, black 96-well plates. On the day of the assay, labeling was performed with BG-S-S-649 (1 µM), a surface-labeling SNAP-tag probe that can be released on application of reducing agents such as Mesna. After washing, treatments were applied for 30 minutes at 37 °C in complete medium. Ligand was removed and cells washed with cold HBSS and placed on ice for subsequent steps. Mesna (100 mM in alkaline TNE buffer, pH 8.6) or alkaline TNE buffer without Mesna was applied for 5 minutes, and then washed with HBSS. Cells were imaged by widefield microscopy, with both epifluorescence and transmitted phase contrast images acquired. On imaging completion, HBSS was removed and replaced with fresh complete medium, and receptor was allowed to recycle for 60 minutes at 37 °C, followed by a second Mesna application to remove any receptor that had recycled to the plasma membrane, with the plate re-imaged as above. Internalized receptor at each time point was determined from cell-containing regions as determined from the phase contrast image using […] ([22]) and used to determine internalization and recycling parameters as previously described ([21]). […]

[4] = test system: INS-1 832/3 GIPR KO cells; assay: Insulin secretion assay, GIPR KO cells; type: cell-based, rat; details: 100 nM, 11 mM glucose; n = 4
Method: At the end of the treatments, the supernatant containing the secreted insulin was collected, centrifuged at 1000g for 3 minutes, and transferred to a fresh tube. To determine total insulin content, cells were lysed using KRBH buffer + 1% w/v BSA + 1% v/v Triton X-100 (Sigma). The lysates were sonicated 3 × 10 seconds in a water bath sonicator and centrifuged at 10 000g for 10 minutes, and the supernatants collected. The samples were stored at −20 °C until the insulin concentration was determined using an Insulin Ultra-Sensitive HTRF Assay kit (62IN2PEG, Cisbio, Codolet, France) according to the manufacturer's instructions.
Figure 7. Functional analysis of GLP-1R vs GIPR signaling in beta cells. […] Data are mean ± SEM, compared by paired t tests; *P < .05; ns, nonsignificant.

[5] = test system: cAMP response in mouse islet beta cells; assay: cAMP FRET assay, Pdx1-CreERT/CAMPER islets; type: cell-based; details: 100 nM, n = 4
Method: Nondiabetic mice of both sexes were used for islet isolation. Briefly, pancreata were infused via the common bile duct with RPMI-1640 medium containing 1 mg/mL collagenase from Clostridium histolyticum (Nordmark Biochemicals), dissected, and incubated in a water bath at 37 °C for 10 minutes. Islets were subsequently washed and purified using a Histopaque gradient (Histopaque-1119, 11191, Sigma-Aldrich, and Histopaque-1083, 10831, Sigma-Aldrich). Isolated islets were allowed to recover overnight at 37 °C in 5% CO2 in RPMI-1640 supplemented with 10% FBS and 1% penicillin/streptomycin. […]
CAMPER reporter mice ([30]), with conditional expression of the cAMP fluorescence resonance energy transfer (FRET) biosensor ^TEPAC^VV ([31]), were purchased from Jackson Laboratory (Stock No: 032205) and crossed with Pdx1-Cre^ERT mice (in house) to generate mice with inducible ^TEPAC^VV expression from pancreatic beta cells, used to isolate islets for ex vivo cAMP FRET assays. […] Raw intensity traces for YFP and CFP fluorescence were extracted from whole islet ROIs using Fiji and YFP/CFP ratios calculated for each ROI and time point. Responses were plotted relative to the average fluorescence intensity per islet during the 6 mM glucose baseline period, before agonist addition. […]

Substance | GIPR internalization (SNAP-tagged human GIPR [1]) | Localization of the fraction of internalized GIPRs (SNAP-tagged human GIPR [2]) | SNAP-GIPR localization (SNAP-tagged human GIPR [2]) | Recycling rate of GIPR compared with GLP-1R (SNAP-tagged human GIPR [3]) | Insulin secretion response in GIPR KO cells [4] | cAMP response, GIP compared with GLP-1, mouse islet beta cells [5]
GLP-1(7-36)NH2 | negligible |  |  |  |  | 
GIP(1-42) |  | also localized to Rab5-Venus-positive endosomes | a sizable amount of SNAP-GIPR was still present at the plasma membrane | significantly increased recycling rates | abolished | a tendency replicated in primary mouse islet beta cells; also recorded: nonsignificant tendency toward increased cAMP
